Assay results: patent US20260297109A1, “COMPOUNDS AS SUMO ACTIVATING ENZYME INHIBITORS” (WIGEN BIOMEDICINE TECHNOLOGY (SHANGHAI) CO., LTD., priority 2022, published 2026)

molecular target: T1, SAE (Homo sapiens, UniProt Q9UBT2); assay: SUMO IF: in vitro inhibitory activity assay against SAE in HCT116 cells (SUMO-2/3 immunofluorescence); type: cell-based; conditions: class symbols, 6 h at 37° C.
T1 construct: endogenous in cells; host or cells: HCT116
T1 sequence (Q9UBT2 1-640): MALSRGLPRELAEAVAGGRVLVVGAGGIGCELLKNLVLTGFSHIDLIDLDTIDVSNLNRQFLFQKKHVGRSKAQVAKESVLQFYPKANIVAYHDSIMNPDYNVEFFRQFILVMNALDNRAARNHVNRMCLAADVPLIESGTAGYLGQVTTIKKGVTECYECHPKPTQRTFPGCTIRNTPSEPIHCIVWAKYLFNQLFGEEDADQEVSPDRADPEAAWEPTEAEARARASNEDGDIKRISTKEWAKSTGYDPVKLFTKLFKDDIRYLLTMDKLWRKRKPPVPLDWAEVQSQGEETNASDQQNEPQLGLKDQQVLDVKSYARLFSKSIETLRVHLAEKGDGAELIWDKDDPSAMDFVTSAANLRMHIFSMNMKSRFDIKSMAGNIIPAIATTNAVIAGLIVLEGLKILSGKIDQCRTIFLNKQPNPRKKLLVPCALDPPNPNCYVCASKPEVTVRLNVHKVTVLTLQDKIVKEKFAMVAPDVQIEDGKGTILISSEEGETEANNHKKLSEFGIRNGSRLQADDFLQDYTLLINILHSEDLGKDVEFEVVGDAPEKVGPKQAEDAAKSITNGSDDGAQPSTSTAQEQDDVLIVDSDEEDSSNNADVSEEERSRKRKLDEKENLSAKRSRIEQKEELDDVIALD
T1 sequence (Q9UBE0 1-346): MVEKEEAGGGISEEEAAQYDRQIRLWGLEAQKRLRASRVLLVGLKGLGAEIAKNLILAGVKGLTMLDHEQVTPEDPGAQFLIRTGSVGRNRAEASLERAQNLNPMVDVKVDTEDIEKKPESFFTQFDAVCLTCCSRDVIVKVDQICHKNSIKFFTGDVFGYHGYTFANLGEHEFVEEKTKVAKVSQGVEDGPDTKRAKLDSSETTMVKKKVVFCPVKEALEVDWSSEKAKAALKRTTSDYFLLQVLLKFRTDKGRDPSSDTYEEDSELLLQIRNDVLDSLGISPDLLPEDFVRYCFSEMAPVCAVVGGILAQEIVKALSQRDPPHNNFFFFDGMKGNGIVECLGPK
Summary of the method: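 SUMO-2/3 immunofluorescence (18H8 primary 1:400, FITC secondary 1:300) was read after 6 h compound exposure of HCT116 cells at 37 °C. Inhibition rate and IC50 derive from signal relative to DMSO-treated wells.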

Row | SMILES | IC50 [µM]
1 | NS(=O)(=O)OC[C@H]1[C@H](F)[C@@H](Nc2ncncc2C(=O)c2cc3c(s2)CN(C2CC2)C[C@]32OCCc3ccc(F)cc32)C[C@@H]1O [Compound 740] | ≤ 0.05
2 | NS(=O)(=O)OC[C@H]1[C@H](F)[C@@H](Nc2ncncc2C(=O)c2cc3c(s2)CN(C2CC2)CC32OCCc3ccc(Cl)cc32)C[C@@H]1O (stereo partly drawn) [Compound 741] | 0.05 to 0.2
3 | NS(=O)(=O)OC[C@H]1[C@H](F)[C@@H](Nc2ncncc2C(=O)c2cc3c(s2)CN(C2CC2)C[C@@]32OCCc3ccc(Cl)cc32)C[C@@H]1O [Compound 742] | > 0.2
4 | NS(=O)(=O)OC[C@H]1[C@H](F)[C@@H](Nc2ncncc2C(=O)c2cc3c(s2)CN(C2CC2)C[C@]32OCCc3ccc(Cl)cc32)C[C@@H]1O [Compound 743] | ≤ 0.05
5 | NS(=O)(=O)OC[C@H]1[C@H](F)[C@@H](Nc2ncncc2C(=O)c2cc3c(s2)CCC32OCCc3ccccc32)C[C@@H]1O (stereo partly drawn) [Compound 744] | > 0.2
6 | NS(=O)(=O)OC[C@H]1[C@H](F)[C@@H](Nc2ncncc2C(=O)c2cc3c(s2)CC[C@@]32OCCc3ccccc32)C[C@@H]1O [Compound 745] | > 0.2
7 | NS(=O)(=O)OC[C@H]1[C@H](F)[C@@H](Nc2ncncc2C(=O)c2cc3c(s2)CC[C@]32OCCc3ccccc32)C[C@@H]1O [Compound 746] | 0.05 to 0.2
8 | NS(=O)(=O)OC[C@H]1[C@H](F)[C@@H](Nc2ncncc2C(=O)c2cc3c(s2)CCC32OCCc3ccc(F)cc32)C[C@@H]1O (stereo partly drawn) [Compound 747] | 0.05 to 0.2
9 | NS(=O)(=O)OC[C@H]1[C@H](F)[C@@H](Nc2ncncc2C(=O)c2cc3c(s2)CC[C@@]32OCCc3ccc(F)cc32)C[C@@H]1O [Compound 748] | > 0.2
10 | NS(=O)(=O)OC[C@H]1[C@H](F)[C@@H](Nc2ncncc2C(=O)c2cc3c(s2)CC[C@]32OCCc3ccc(F)cc32)C[C@@H]1O [Compound 749] | 0.05 to 0.2
11 | N#Cc1ccc2c(c1)C1(CCc3sc(C(=O)c4cncnc4N[C@H]4C[C@H](O)[C@@H](COS(N)(=O)=O)[C@@H]4F)cc31)OCC2 (stereo partly drawn) [Compound 750] | 0.05 to 0.2
12 | N#Cc1ccc2c(c1)[C@]1(CCc3sc(C(=O)c4cncnc4N[C@H]4C[C@H](O)[C@@H](COS(N)(=O)=O)[C@@H]4F)cc31)OCC2 [Compound 751] | > 0.2
13 | N#Cc1ccc2c(c1)[C@@]1(CCc3sc(C(=O)c4cncnc4N[C@H]4C[C@H](O)[C@@H](COS(N)(=O)=O)[C@@H]4F)cc31)OCC2 [Compound 752] | ≤ 0.05
14 | NS(=O)(=O)OC[C@H]1[C@H](F)[C@@H](Nc2ncncc2C(=O)c2cc3c(s2)C=CC32OCCc3ccccc32)C[C@@H]1O (stereo partly drawn) [Compound 753] | 0.05 to 0.2
15 | NS(=O)(=O)OC[C@H]1[C@H](F)[C@@H](Nc2ncncc2C(=O)c2cc3c(s2)C=C[C@@]32OCCc3ccccc32)C[C@@H]1O [Compound 754] | > 0.2
16 | NS(=O)(=O)OC[C@H]1[C@H](F)[C@@H](Nc2ncncc2C(=O)c2cc3c(s2)C=C[C@]32OCCc3ccccc32)C[C@@H]1O [Compound 755] | 0.05 to 0.2
17 | NS(=O)(=O)OC[C@H]1[C@H](F)[C@@H](Nc2ncncc2C(=O)c2cc3c(s2)C=CC32OCCc3ccc(F)cc32)C[C@@H]1O (stereo partly drawn) [Compound 756] | 0.05 to 0.2
18 | NS(=O)(=O)OC[C@H]1[C@H](F)[C@@H](Nc2ncncc2C(=O)c2cc3c(s2)C=C[C@@]32OCCc3ccc(F)cc32)C[C@@H]1O [Compound 757] | > 0.2
19 | NS(=O)(=O)OC[C@H]1[C@H](F)[C@@H](Nc2ncncc2C(=O)c2cc3c(s2)C=C[C@]32OCCc3ccc(F)cc32)C[C@@H]1O [Compound 758] | ≤ 0.05
20 | NS(=O)(=O)OC[C@H]1[C@H](F)[C@@H](Nc2ncncc2C(=O)c2cc3c(s2)C=CC32OCCc3ccc(Cl)cc32)C[C@@H]1O (stereo partly drawn) [Compound 759] | ≤ 0.05
21 | NS(=O)(=O)OC[C@H]1[C@H](F)[C@@H](Nc2ncncc2C(=O)c2cc3c(s2)C=C[C@@]32OCCc3ccc(Cl)cc32)C[C@@H]1O [Compound 760] | > 0.2
22 | NS(=O)(=O)OC[C@H]1[C@H](F)[C@@H](Nc2ncncc2C(=O)c2cc3c(s2)C=C[C@]32OCCc3ccc(Cl)cc32)C[C@@H]1O [Compound 761] | ≤ 0.05
23 | N#Cc1ccc2c(c1)C1(C=Cc3sc(C(=O)c4cncnc4N[C@H]4C[C@H](O)[C@@H](COS(N)(=O)=O)[C@@H]4F)cc31)OCC2 (stereo partly drawn) [Compound 762] | 0.05 to 0.2

Row | SMILES | IC50 [µM]
24 | N#Cc1ccc2c(c1)[C@]1(C=Cc3sc(C(=O)c4cncnc4N[C@H]4C[C@H](O)[C@@H](COS(N)(=O)=O)[C@@H]4F)cc31)OCC2 [Compound 763] | > 0.2
25 | N#Cc1ccc2c(c1)[C@@]1(C=Cc3sc(C(=O)c4cncnc4N[C@H]4C[C@H](O)[C@@H](COS(N)(=O)=O)[C@@H]4F)cc31)OCC2 [Compound 764] | ≤ 0.05
26 | NS(=O)(=O)OC[C@H]1[C@H](F)[C@@H](Nc2ncncc2C(=O)c2cc(C3NCCc4ccc(Cl)cc43)c(C3CC3)s2)C[C@@H]1O (stereo partly drawn) [Compound 984] | 0.05 to 0.2
27 | NS(=O)(=O)OC[C@H]1[C@H](F)[C@@H](Nc2ncncc2C(=O)c2cc([C@@H]3NCCc4ccc(Cl)cc43)c(C3CC3)s2)C[C@@H]1O [Compound 985] | 0.05 to 0.2
28 | NS(=O)(=O)OC[C@H]1[C@H](F)[C@@H](Nc2ncncc2C(=O)c2cc([C@H]3NCCc4ccc(Cl)cc43)c(C3CC3)s2)C[C@@H]1O [Compound 986] | > 0.2
29 | Cc1sc(C(=O)c2cncnc2N[C@H]2C[C@H](O)[C@@H](COS(N)(=O)=O)[C@@H]2F)cc1C1OCCc2ccc(Cl)cc21 (stereo partly drawn) [Compound 987] | 0.05 to 0.2
30 | Cc1sc(C(=O)c2cncnc2N[C@H]2C[C@H](O)[C@@H](COS(N)(=O)=O)[C@@H]2F)cc1[C@@H]1OCCc2ccc(Cl)cc21 [Compound 988] | 0.05 to 0.2
31 | Cc1sc(C(=O)c2cncnc2N[C@H]2C[C@H](O)[C@@H](COS(N)(=O)=O)[C@@H]2F)cc1[C@H]1OCCc2ccc(Cl)cc21 [Compound 989] | > 0.2
32 | Cc1sc(C(=O)c2cncnc2N[C@H]2C[C@H](O)[C@@H](CCS(N)(=O)=O)[C@@H]2F)cc1C1NCCc2ccc(Cl)cc21 (stereo partly drawn) [Compound 990] | > 0.2
33 | Cc1sc(C(=O)c2cncnc2N[C@H]2C[C@H](O)[C@@H](CCS(N)(=O)=O)[C@@H]2F)cc1[C@@H]1NCCc2ccc(Cl)cc21 [Compound 991] | 0.05 to 0.2
34 | Cc1sc(C(=O)c2cncnc2N[C@H]2C[C@H](O)[C@@H](CCS(N)(=O)=O)[C@@H]2F)cc1[C@H]1NCCc2ccc(Cl)cc21 [Compound 992] | > 0.2
35 | CC1CNC2(CCCc3sc(C(=O)c4cncnc4N[C@H]4C[C@H](O)[C@@H](COS(N)(=O)=O)[C@@H]4F)cc32)c2cc(Cl)ccc21 (stereo partly drawn) [Compound 1020] | 0.05 to 0.2
36 | CC1CN[C@@]2(CCCc3sc(C(=O)c4cncnc4N[C@H]4C[C@H](O)[C@@H](COS(N)(=O)=O)[C@@H]4F)cc32)c2cc(Cl)ccc21 (stereo partly drawn) [Compound 1021] | > 0.2
37 | CC1CN[C@]2(CCCc3sc(C(=O)c4cncnc4N[C@H]4C[C@H](O)[C@@H](COS(N)(=O)=O)[C@@H]4F)cc32)c2cc(Cl)ccc21 (stereo partly drawn) [Compound 1022] | ≤ 0.05
38 | CC1Cc2ccc(Cl)cc2C2(CCCc3sc(C(=O)c4cncnc4N[C@H]4C[C@H](O)[C@@H](COS(N)(=O)=O)[C@@H]4F)cc32)N1 (stereo partly drawn) [Compound 1023] | 0.05 to 0.2
39 | CC1Cc2ccc(Cl)cc2[C@]2(CCCc3sc(C(=O)c4cncnc4N[C@H]4C[C@H](O)[C@@H](COS(N)(=O)=O)[C@@H]4F)cc32)N1 (stereo partly drawn) [Compound 1024] | > 0.2
40 | CC1Cc2ccc(Cl)cc2[C@@]2(CCCc3sc(C(=O)c4cncnc4N[C@H]4C[C@H](O)[C@@H](COS(N)(=O)=O)[C@@H]4F)cc32)N1 (stereo partly drawn) [Compound 1025] | 0.05 to 0.2
41 | CC1(C)CNC2(CCCc3sc(C(=O)c4cncnc4N[C@H]4C[C@H](O)[C@@H](COS(N)(=O)=O)[C@@H]4F)cc32)c2cc(Cl)ccc21 (stereo partly drawn) [Compound 1026] | 0.05 to 0.2
42 | CC1(C)CN[C@@]2(CCCc3sc(C(=O)c4cncnc4N[C@H]4C[C@H](O)[C@@H](COS(N)(=O)=O)[C@@H]4F)cc32)c2cc(Cl)ccc21 [Compound 1027] | > 0.2
43 | CC1(C)CN[C@]2(CCCc3sc(C(=O)c4cncnc4N[C@H]4C[C@H](O)[C@@H](COS(N)(=O)=O)[C@@H]4F)cc32)c2cc(Cl)ccc21 [Compound 1028] | 0.05 to 0.2
44 | CC1(C)Cc2ccc(Cl)cc2C2(CCCc3sc(C(=O)c4cncnc4N[C@H]4C[C@H](O)[C@@H](COS(N)(=O)=O)[C@@H]4F)cc32)N1 (stereo partly drawn) [Compound 1029] | 0.05 to 0.2
45 | CC1(C)Cc2ccc(Cl)cc2[C@]2(CCCc3sc(C(=O)c4cncnc4N[C@H]4C[C@H](O)[C@@H](COS(N)(=O)=O)[C@@H]4F)cc32)N1 [Compound 1030] | > 0.2
